Our source for the AC35 values is PubChem BioAssay AID686920 (Broad Institute, 2013).

This assay concerns A673 NR0B1-luciferase reporter, viability-normalised luminescence. The assay can be described thus: NR0B1 reporter signal reduction in A673 cells – cell-based, luciferase luminescence, cherry-pick, EWS/Fli inhibitor project, dose response (AID 686920).
Turning to `COc1cccc(-c2cc(NC=O)c3ncc(-c4ccc(C(C)=O)cc4)n3c2)c1`, the AC35 was 6.25 µM. `CC(=O)OC1CC(OC2C(O)CC(OC3C(O)CC(OC4CCC5(C)C(CCC6C5CCC5(C)C(C7=CC(=O)OC7)C(O)CC65O)C4)OC3C)OC2C)OC(C)C1OC1OC(CO)C(O)C(O)C1O` (stereo not drawn): the AC35 was 0.812 µM. Consider `COc1ccc(C=NNc2nc3ccccc3s2)cc1`, for which the AC35 was 6.43 µM. As to `C[C@@H]1CN([C@@H](C)CO)C(=O)c2cccc(NC(=O)Nc3cccc4ccccc34)c2O[C@@H]1CN(C)Cc1ccc(C(=O)Nc2ccccc2N)cc1`, the AC35 is 10.2 µM. For `C(=NNc1ccc2ccccc2n1)c1ccccn1`, the AC35 was 1.55 µM. As for `COc1ccc(C2=Nn3c(nnc3-c3ccccc3F)SC2)cc1OC1CCOC1` (stereo not drawn), the AC35 was 4.37 µM. For `O=C1Nc2cc(C(=O)NCCN3CCCCCC3)ccc2S/C1=C\c1ccccc1`, the AC35 was 11.6 µM. In the case of `COc1ccc(N=C2C(=O)Nc3ccc(C)c(Br)c32)cc1`, the AC35 is 10 µM. Regarding `O=C(O)c1ccc(N/N=C/c2c[nH]c3ccccc23)cc1`, the AC35 is 8.82 µM. The same measure for `COc1ccc(-c2cc(CNc3nc(NC(C)C)nc4cc(-c5ccccc5)sc34)on2)cc1`: 15.7 µM; for `COc1cc(-c2coc3c(C(=O)NCc4ccc(C(F)(F)F)cc4)cccc23)ccc1O`: 2.21 µM; for `CC(=O)OC1CC(OC2C(O)CC(OC3C(O)CC(OC4CCC5(C)C(CCC6C5CC(O)C5(C)C(C7=CC(=O)OC7)CCC65O)C4)OC3C)OC2C)OC(C)C1OC1OC(CO)C(O)C(O)C1O` (stereo not drawn): 0.225 µM. Consider `C[C@@H]1CN([C@@H](C)CO)C(=O)c2cccc(NS(=O)(=O)c3ccc(F)cc3)c2O[C@@H]1CN(C)Cc1ccc(C(=O)Nc2ccccc2N)cc1`, for which the AC35 was 6.97 µM.

Take `COc1ccc(OC)c(-c2nnc3n2N=C(c2ccc(OC)c(OC4CCOC4)c2)CS3)c1` (stereo not drawn): the AC35 was 6.56 µM. For the compound `C[C@H](CO)N1C[C@H](C)[C@H](CN(C)Cc2ccccc2)Oc2ccc(NC(=O)CCCCCC(=O)Nc3ccccc3N)cc2CC1=O`, the AC35 is 5.93 µM. With `O=C(O)CN1C(=O)/C(=C\c2ccccc2OCc2ccc(Cl)cc2Cl)SC1=S`, the AC35 was 13.7 µM. On to `CCOc1ccc2nc(NC3=NC(c4ccc(OC)cc4)CC(=O)N3)nc(C)c2c1` (stereo not drawn), for which the AC35 is 9.3 µM. With `CNC[C@H](CC1CCCCC1)NC[C@H](CO)NCCc1cccc(C(F)(F)F)c1`, the AC35 is 13.7 µM.

Consider `COC(=O)Cc1ccc(NC(=O)c2ccccc2Cl)cc1`, for which the AC35 is 2.6 µM.

On to `COc1ccc(C=C2CCc3ccccc3C2=O)cc1`, for which the AC35 is 10.4 µM. Consider `O=C(C[C@H]1C[C@H]2c3cc(NS(=O)(=O)c4ccc(F)cc4)ccc3O[C@H]2[C@H](CO)O1)NCc1ccc(Oc2ccccc2)cc1`, for which the AC35 is 6.22 µM.

For the compound `C[C@@H]1CN([C@H](C)CO)C(=O)c2cc(NC(=O)c3ccccc3)ccc2O[C@@H](C)CCCCO[C@H]1CN(C)C(=O)Nc1cccc2ccccc12`, the AC35 was 2.07 µM.

In the case of `C[C@H](CO)N1C[C@H](C)[C@H](CN(C)Cc2ccc(Oc3ccccc3)cc2)Oc2ccc(NC(=O)CCCCCC(=O)Nc3ccccc3N)cc2CC1=O`, the AC35 is 4.15 µM. For the compound `C[C@@H]1CN([C@@H](C)CO)S(=O)(=O)c2ccc(C#Cc3ccncc3)cc2O[C@H]1CN(C)C(=O)C1CCOCC1`, the AC35 was 49.8 µM. With `C[C@@H]1CCCCO[C@H](CN(C)Cc2ccc(C(=O)Nc3ccccc3N)cc2)[C@@H](C)CN([C@@H](C)CO)C(=O)c2cc(NS(=O)(=O)c3ccc(Cl)cc3)ccc2O1`, the AC35 was 6.13 µM. Turning to `Cc1ccc(S(=O)(=O)Nc2ccc3c(c2)C(=O)N([C@H](C)CO)C[C@@H](C)[C@@H](CN(C)Cc2ccc(C(=O)Nc4ccccc4N)cc2)O3)cc1`, the AC35 was 9.6 µM. For the compound `C[C@H]1CN([C@@H](C)CO)S(=O)(=O)c2ccc(C#Cc3ccncc3)cc2O[C@@H]1CN(C)S(=O)(=O)c1ccccc1`, the AC35 was 24.4 µM.

As for `COc1ccc(/C=C2\SC(=S)N(CCCC(=O)NNC(=O)c3ccccc3O)C2=O)cc1`, the AC35 was 9.15 µM. Regarding `C[C@H](CO)N1C[C@H](C)[C@H](CN(C)CC2CCCCC2)Oc2ccc(NC(=O)Nc3cccc4ccccc34)cc2C1=O`, the AC35 was 43.3 µM. Turning to `C[C@@H]1CN([C@@H](C)CO)C(=O)c2cc(NC(=O)Nc3ccccc3)ccc2O[C@@H]1CN(C)Cc1ccc(C(=O)Nc2ccccc2N)cc1`, the AC35 is 5.75 µM. For the compound `C[C@H]1CN([C@@H](C)CO)C(=O)c2cccc(NC(=O)CCCCCC(=O)Nc3ccccc3N)c2O[C@@H]1CN(C)Cc1ccc2c(c1)OCO2`, the AC35 is 15.2 µM. With `Cc1cc(C(=O)Nc2ccc3c(c2)C(=O)N(C)[C@@H]2CC[C@H](CC(=O)N[C@H](C)c4ccccc4)O[C@H]2CO3)no1`, the AC35 was 10.2 µM.

Turning to `O=c1ccc2[n+]([O-])c3ccc(O)cc3oc-2c1`, the AC35 was 3.7 µM.

Regarding `C#CCOCCOCCOCCNc1nc(N2CCN(C(=O)CCCCCCCCCCNC(=O)Cn3cc(C[C@@H](C)O)nn3)CC2)nc(N2CCN(C(=O)CCCCCCCCCCNC(=O)[C@H](CO)n3cc(CCCSC)nn3)CC2)n1`, the AC35 was 9.81 µM.

In the case of `Cc1csc(NC(=O)CCc2c(C)nc3cc(-c4ccc(Cl)cc4)nn3c2C)n1`, the AC35 was 0.284 µM. `C[C@@H]1CN([C@@H](C)CO)C(=O)Cc2cc(N(C)C)ccc2O[C@@H]1CN(C)Cc1ccccc1`: the AC35 is 7.99 µM. On to `CCc1cccc2c(C(=O)CN3C(=O)NC4(CCCCC4)C3=O)c[nH]c12`, for which the AC35 was 14.1 µM.

In the case of `CC(C)c1ccccc1NC(=O)COC(=O)CCN1C(=O)/C(=C\C=C\c2ccccc2)SC1=S`, the AC35 was 1.9 µM. With `COc1ccc(Nc2oc(COc3ccccc3OC)nc2C#N)cc1`, the AC35 is 6.24 µM. As for `Cc1cc(C(=O)CN2C(=O)c3ccccc3S2(=O)=O)c(C)n1C(C)C`, the AC35 is 3.04 µM. In the case of `N#CC1=C(N)Oc2cc(N)ccc2C1c1cccc(Br)c1` (stereo not drawn), the AC35 is 0.542 µM. Consider `CN(C)c1ccc(/C=N/Nc2nc3ccccc3o2)cc1`, for which the AC35 was 5.35 µM. As to `CCCCNC1=CC(=O)C(=O)c2ccccc21`, the AC35 was 6.17 µM. On to `CO[C@H]1CN(C)C(=O)c2cc(NC(=O)c3ccc(Oc4ccccc4)cc3)ccc2OC[C@H](C)NC[C@@H]1C`, for which the AC35 was 26.5 µM. The same measure for `C[C@H]1CN([C@@H](C)CO)S(=O)(=O)c2ccc(C#CC(C)(C)O)cc2O[C@@H]1CN(C)Cc1ccc(-c2ccccc2)cc1`: 1.09 µM; for `CC(C)=CCC/C(C)=C/CN1C(=O)N(c2ccc(F)cc2)[C@H]2C[C@@H](c3ccccc3)[C@@H](C)[C@@H](C(=O)N3CCOCC3)C[C@H]21`: 7.8 µM; for `O=c1[nH]c(=O)n(C2C[C@H](O)[C@@H](CO)O2)cc1C(F)(F)F` (stereo partly drawn): 4.01 µM. As for `Oc1c(Cl)cc(Cl)c(Cl)c1Cc1c(O)c(Cl)cc(Cl)c1Cl`, the AC35 was 35.3 µM. With `COc1ccc(/C=C2\Oc3ccccc3C2=O)cc1`, the AC35 was 8.51 µM. For `O=C(NCc1cccnc1)C1Cc2c(-c3ccc(Cl)cc3)ccnc2O1` (stereo not drawn), the AC35 was 6.04 µM.

Regarding `COC(=O)Cc1[nH]n(-c2nc3ccccc3s2)c(=O)c1C(C)=Nc1ccc(C)cc1`, the AC35 was 0.17 µM. As for `CC(C)c1ccc(OCc2cccc(C(=O)N/N=C/c3cccnc3)c2)cc1`, the AC35 is 1.03 µM. For `O=C(O)c1ccc(N/N=C/c2ccc(OC(=O)c3cccc(Cl)c3)cc2)cc1`, the AC35 was 7.06 µM. Next, `O=c1oc2cc(O)ccc2s1`: 11.8 µM; `CCN1/C(=C/C=C/c2oc3ccc(-c4ccccc4)cc3[n+]2CC)Oc2ccc(-c3ccccc3)cc21`: 2.49 µM. The same measure for `O=C(NC1CCCC1)N1CCCCN2[C@@H](CO)[C@@H](c3ccc(/C=C/c4ccccc4)cc3)[C@@H]2C1`: 14.3 µM; for `N#C[C@H]1[C@H](c2ccc(C#Cc3ccccc3F)cc2)[C@@H](CO)N1C(=O)C1CCCCC1`: 19.5 µM. As to `C[C@@H]1CN([C@H](C)CO)C(=O)c2cc(NC(=O)CCCCCC(=O)Nc3ccccc3N)ccc2O[C@@H]1CN(C)Cc1ccc(Cl)c(Cl)c1`, the AC35 is 5.24 µM. The same measure for `C[C@@H]1CN([C@H](C)CO)C(=O)c2cc(N(C)C)ccc2O[C@H]1CN(C)Cc1ccc(C(=O)Nc2ccccc2N)cc1`: 9.4 µM. Next, `CC1(C)Oc2cc3oc(-c4cc(O)cc(O)c4)cc3cc2CC1O` (stereo not drawn): 2.07 µM.

Consider `O=C(CCCN1C(=O)S/C(=C\c2ccccc2)C1=O)NNC(=O)c1ccccc1O`, for which the AC35 was 4.38 µM.

Turning to `CCCCCCCCn1c2c(c(=N)c3c1CCC3)CCCC2`, the AC35 was 5.73 µM.

`CCC1=Nc2cc(C(=O)NCC3CCCO3)ccc2Sc2ccc(Br)cc21` (stereo not drawn): the AC35 is 6.5 µM. In the case of `C[C@H](CO)N1C[C@H](C)[C@H](CN(C)Cc2ccc(C(F)(F)F)cc2)Oc2c(NS(=O)(=O)c3ccc(Cl)cc3)cccc2C1=O`, the AC35 is 43.4 µM. As for `O=C1NC(=O)N(CCc2ccc(F)cc2)C(=O)/C1=C/C=C/c1ccccc1`, the AC35 is 2.66 µM. With `CCCCc1c(Cc2ccccc2)ncn1CCc1ccccc1OC`, the AC35 was 20.8 µM. Next, `Cc1sc2nc(CN3CCC(C)CC3)nc(Cl)c2c1C`: 63 µM; `O=C(C[C@@H]1C[C@H]2c3cc(NS(=O)(=O)c4ccc(F)cc4)ccc3O[C@H]2[C@H](CO)O1)NCc1ccc(-c2ccccc2)cc1`: 2.03 µM; `C[C@H](CO)N1C[C@H](C)[C@@H](CN(C)Cc2ccc(C(F)(F)F)cc2)OCCCC[C@H](C)Oc2ccc(NS(=O)(=O)c3ccc(F)cc3)cc2C1=O`: 16.6 µM.

Regarding `COc1ccc(CCCNC(=O)C2Cc3c(-c4ccc5c(c4)OCO5)ccnc3O2)cc1` (stereo not drawn), the AC35 is 10.5 µM. Regarding `CCCn1c(C)cc(C(=O)CN2C(=O)c3ccccc3S2(=O)=O)c1C`, the AC35 was 1.25 µM. Regarding `CC(C)(C)[S@](=O)N1Cc2cc(C(=O)NCC(F)(F)F)nc(-c3cccc(-c4cccc(F)c4)c3)c2[C@@H]1CCO`, the AC35 is 18.9 µM.

With `CC(C)Oc1ccc(Br)cc1C(=O)N/N=C/c1c[nH]c2ccccc12`, the AC35 is 17.2 µM. Take `O=C(O)c1ccc(N/N=C/c2ccc3nccnc3c2)cc1`: the AC35 is 0.993 µM.

As to `CC(=NNc1cc(C)c2ccccc2n1)c1ccccn1`, the AC35 was 8.23 µM.

Regarding `NC(Cc1ccc(C(F)(F)F)cc1)c1csc(NC(=O)Nc2ccccc2Cc2ccccc2)n1` (stereo not drawn), the AC35 was 17.6 µM. For the compound `CC(=O)OC1CC(OC2C(O)CC(OC3C(O)CC(OC4CCC5(C)C(CCC6C5CCC5(C)C(C7=CC(=O)OC7)CCC65O)C4)OC3C)OC2C)OC(C)C1OC1OC(CO)C(O)C(O)C1O` (stereo not drawn), the AC35 was 0.0893 µM. Turning to `N#C[C@@H]1[C@H](c2ccc(C#Cc3cccc(F)c3)cc2)[C@@H](CO)N1C(=O)C1CCCC1`, the AC35 is 4.38 µM.
